Data reported in patent US7781428B2 (Pfizer Inc., priority 2006, dated 2010).
Counter-ions that a name gives are not always drawn.

Target: T1, mineralocorticoid receptor (MR) (Homo sapiens, UniProt P08235)
T1 construct: expressed in transfected cells; host or cells: Huh7 (human liver cells)
T1 sequence (P08235 726-964 limits assumed): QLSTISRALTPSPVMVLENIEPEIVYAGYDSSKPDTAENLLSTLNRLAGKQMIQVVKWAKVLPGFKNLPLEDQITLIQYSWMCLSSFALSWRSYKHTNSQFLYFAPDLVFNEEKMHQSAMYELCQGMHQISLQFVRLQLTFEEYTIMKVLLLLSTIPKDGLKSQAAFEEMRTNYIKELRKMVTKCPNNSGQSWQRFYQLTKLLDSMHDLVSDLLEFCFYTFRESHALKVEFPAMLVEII
Test: Cell-based Gal4 response element-controlled luciferase reporter assay (MR antagonism)
Conditions: Huh7 human liver cells transfected with Gal4 DBD-MR LBD fusion and luciferase reporter; block of agonist-induced activation; overnight incubation
Method in brief: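 Transiently transfected Huh7 cells were treated with agonist at 70-80% of full activation plus compounds for 18-20 h in medium with charcoal/dextran-stripped serum. Luciferase read-out was normalized to β-galactosidase (ONPG, OD420); IC50 came from curve fitting.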

IC50 | Compound
> 1000 nM | N#Cc1ccc(N2N=C3c4ccc(C(=O)O)cc4OC[C@H]3[C@H]2c2ccc(F)cc2)cc1 [Example 60, (3S,3aS)-2-(4-cyanophenyl)-3-(4-fluorophenyl)-2,3,3a,4-tetrahydrochromeno[4,3-c]pyrazole-7-carboxylic acid]
535 nM | O=C(O)c1ccc2c(c1)CCC1C2=NN(c2ccc3c(c2)CCNC3=O)C1c1ccc(F)cc1 (racemic) [Example 13, 3-(4-fluorophenyl)-2-(1-oxo-1,2,3,4-tetrahydroisoquinolin-6-yl)-3,3a,4,5-tetrahydro-2H-benzo[g]indazole-7-carboxylic acid]
167 nM | Cc1cc(N2N=C3c4ccc(C(=O)O)cc4OCC3C2C(C)C)ccc1C#N (stereo not shown) [Example 73, 2-(4-cyano-3-methylphenyl)-3-isopropyl-2,3,3a,4-tetrahydrochromeno[4,3-c]pyrazole-7-carboxylic acid]
113 nM | N#Cc1ccc(N2N=C3c4ccc(O)cc4CC[C@@H]3[C@@H]2c2ccc(F)cc2)cc1C(F)(F)F [Example 84, 4-((3R,3aR)-3-(4-fluorophenyl)-7-hydroxy-3,3a,4,5-tetrahydrobenzo[g]indazol-2-yl)-2-(trifluoromethyl)benzonitrile]
52 nM | N#Cc1ccc(N2N=C3c4ccc(C(=O)O)cc4OCC3C2C2CCCC2)cc1C(F)(F)F (racemic) [Example 68, (±)-(3RS,3aSR)-2-[4-cyano-3-(trifluoromethyl)phenyl]-3-cyclopentyl-2,3,3a,4-tetrahydrochromeno[4,3-c]pyrazole-7-carboxylic acid]
307 nM | Cc1cc(N2N=C3c4ccc(C(=O)O)cc4OCC3C2c2ccc(F)cc2)ccc1C#N (racemic) [Example 53, (±)-(3SR,3aSR)-2-(4-cyano-3-methylphenyl)-3-(4-fluorophenyl)-2,3,3a,4-tetrahydrochromeno[4,3-c]pyrazole-7-carboxylic acid]
39 nM | Cc1cc(N2N=C3c4ccc(C(=O)O)cc4OCC3C2C2CCCC2)ccc1C#N (racemic) [Example 61, 2-(4-cyano-3-methylphenyl)-3-cyclopentyl-2,3,3a,4-tetrahydrochromeno[4,3-c]pyrazole-7-carboxylic acid]
5 nM | CC(=O)Nc1ccc2c(c1)CCC1C2=NN(c2ccc(C#N)c(Cl)c2)C1C1CCCC1 (stereo not shown) [Example 91, N-(-2-(3-chloro-4-cyanophenyl)-3-cyclopentyl-3,3a,4,5-tetrahydro-2H-benzo[g]indazol-7-yl)acetamide]
103 nM | Cc1ncc(C2C3CCc4cc(C(=O)O)ccc4C3=NN2c2ccc(C#N)c(Cl)c2)s1 (racemic) [Example 49, 2-(3-chloro-4-cyanophenyl)-3-(2-methyl-1,3-thiazol-5-yl)-3,3a,4,5-tetrahydro-2H-benzo[g]indazole-7-carboxylic acid]
3 nM | N#Cc1ccc(N2N=C3c4ccc(C(=O)NCCO)cc4CC[C@@H]3[C@@H]2C2CCCC2)cc1Cl [Example 115, (3S,3aR)-2-(3-chloro-4-cyanophenyl)-3-cyclopentyl-N-(2-hydroxyethyl)-3,3a,4,5-tetrahydro-2H-benzo[g]indazole-7-carboxamide]
23 nM | C[S+]([O-])CCNC(=O)c1ccc2c(c1)CC[C@H]1C2=NN(c2ccc(C#N)c(Cl)c2)[C@H]1c1ccc(F)cc1 (mixture of isomers) [Example 101, (±)-(3RS,3aRS)-2-(3-chloro-4-cyanophenyl)-3-(4-fluorophenyl)-N-[2-(methylsulfinyl)ethyl]-3,3a,4,5-tetrahydro-2H-benzo[g]indazole-7-carboxamide]
7 nM | Cc1cc(N2N=C3c4ccc(C(=O)O)cc4CCC3C2C2=CCCC2)ccc1C#N (racemic) [Example 51, 2-(4-cyano-3-methylphenyl)-3-cyclopentenyl-3,3a,4,5-tetrahydro-2H-benzo[g]indazole-7-carboxylic acid]
13 nM | C[S+]([O-])CCNC(=O)c1ccc2c(c1)CC[C@@H]1C2=NN(c2ccc(C#N)c(Cl)c2)[C@H]1c1ccc(F)cc1 (mixture of isomers) [Example 98, (±)-(3RS,3aSR)-2-(3-chloro-4-cyanophenyl)-3-(4-fluorophenyl)-N-(2-(methylsulfinyl)ethyl)-3,3a,4,5-tetrahydro-2H-benzo[g]indazole-7-carboxamide]
7 nM | COc1cc(N2N=C3c4ccc(C(=O)O)cc4CCC3C2C2CCCC2)ccc1C#N (racemic) [Example 25, 2-(4-cyano-3-methoxyphenyl)-3-cyclopentyl-3,3a,4,5-tetrahydro-2H-benzo[g]indazole-7-carboxylic acid]
8 nM | Cc1nc(N2N=C3c4ccc(C(=O)O)cc4CCC3C2C2CCCC2)ccc1C#N (racemic) [Example 24, 2-(5-cyano-6-methylpyridin-2-yl)-3-cyclopentyl-3,3a,4,5-tetrahydro-2H-benzo[g]indazole-7-carboxylic acid]
69 nM | N#Cc1ccc(N2N=C3c4ccc(C(=O)O)cc4CCC3C2c2ccoc2)cc1Cl (racemic) [Example 46, 2-(3-chloro-4-cyanophenyl)-3-(3-furyl)-3,3a,4,5-tetrahydro-2H-benzo[g]indazole-7-carboxylic acid]
205 nM | N#Cc1ccc(N2N=C3c4ccc(C(=O)O)cc4CC[C@@H]3[C@@H]2c2ccc(F)cc2)cc1 [Example 11, (3R,3aR)-2-(4-cyanophenyl)-3-(4-fluorophenyl)-3,3a,4,5-tetrahydro-2H-benzo[g]indazole-7-carboxylic acid]
12 nM | CS(=O)(=O)CCNC(=O)c1ccc2c(c1)CCC1C2=NN(c2ccc(C#N)c(Cl)c2)C1c1ccc(F)cc1 (racemic) [Example 97, (±)-(3RS,3aRS)-2-(3-chloro-4-cyanophenyl)-3-(4-fluorophenyl)-N-(2-(methylsulfonyl)ethyl)-3,3a,4,5-tetrahydro-2H-benzo[g]indazole-7-carboxamide]
849 nM | N#Cc1ccc(N2N=C3c4ccc(C(=O)O)cc4OCC3C2c2ccc(F)cc2)cc1Cl (racemic) [Example 55, 2-(3-chloro-4-cyanophenyl)-3-(4-fluorophenyl)-2,3,3a,4-tetrahydrochromeno[4,3-c]pyrazole-7-carboxylic acid]
70 nM | N#Cc1ccc(N2N=C3c4ccc(C(=O)O)cc4OCC3C2C2=CCCC2)cc1Cl (racemic) [Example 78, (±)-(3RS,3aRS)-2-(3-chloro-4-cyanophenyl)-3-cyclopentenyl-2,3,3a,4-tetrahydrochromeno[4,3-c]pyrazole-7-carboxylic acid]
1 nM | CS(=O)(=O)CCNC(=O)c1ccc2c(c1)CC[C@H]1C2=NN(c2ccc(C#N)c(Cl)c2)[C@H]1C1CCCC1 [Example 114, (3S,3aR)-2-(3-chloro-4-cyanophenyl)-3-cyclopentyl-N-(2-(methylsulfonyl)ethyl)-3,3a,4,5-tetrahydro-2H-benzo[g]indazole-7-carboxamide]
21 nM | N#Cc1ccc(N2N=C3c4ccc(C(=O)O)cc4CCC3C2C2CCC2)cc1Cl (racemic) [Example 35, 2-(3-chloro-4-cyanophenyl)-3-cyclobutyl-3,3a,4,5-tetrahydro-2H-benzo[g] indazole-7-carboxylic acid]
305 nM | COc1cc(N2N=C3c4ccc(C(=O)O)cc4CC[C@H]3[C@H]2C2CCCC2)ccc1C#N [Example 27, (3R,3aS)-2-(4-cyano-3-methoxyphenyl)-3-cyclopentyl-3,3a,4,5-tetrahydro-2H-benzo[g]indazole-7-carboxylic acid]
146 nM | N#Cc1ccc(N2N=C3c4ccc(C(=O)O)cc4OCC3C2C2CCCC2)cc1Cl (racemic) [Example 67, 2-(3-chloro-4-cyanophenyl)-3-cyclopentyl-2,3,3a,4-tetrahydrochromeno[4,3-c]pyrazole-7-carboxylic acid]
553 nM | N#Cc1ccc(N2N=C3c4ccc(C(=O)O)cc4CCC3C2c2ccc(F)cc2)cc1 (racemic) [Example 10, 2-(4-cyanophenyl)-3-(4-fluorophenyl)-3,3a,4,5-tetrahydro-2H-benzo[g]indazole-7-carboxylic acid]
> 1000 nM | N#Cc1ccc(N2N=C3c4ccc(C(=O)O)cc4CCC3C2C2CCNCC2)cc1Cl (racemic) [Example 38, 2-(3-chloro-4-cyanophenyl)-3-(piperidin-4-yl)-3,3a,4,5-tetrahydro-2H-benzo[g]indazole-7-carboxylic acid trifluoroacetate]
26 nM | Cc1cc(N2N=C3c4ccc(C(=O)O)cc4OC[C@@H]3[C@@H]2C2CCCC2)ccc1C#N (single isomer, unassigned) [Example 62]
973 nM | N#Cc1ccc(N2N=C3c4ccc(C(=O)O)cc4OCC3C2c2ccc(F)cc2)cc1C(F)(F)F (racemic) [Example 54, 2-(4-cyano-3-(trifluoromethyl)phenyl)-3-(4-fluorophenyl)-2,3,3a,4-tetrahydrochromeno[4,3-c]pyrazole-7-carboxylic acid]

Compound | IC50
N#Cc1ccc(N2N=C3c4ccc(C(=O)O)cc4CC[C@H]3[C@H]2c2ccc(F)cc2)cc1Cl [Example 4, (3S,3aS)-2-(3-chloro-4-cyanophenyl)-3-(4-fluorophenyl)-3,3a,4,5-tetrahydro-2H-benzo[g]indazole-7-carboxylic acid] | 3500 nM
N#Cc1ccc(N2N=C3c4ccc(C(=O)O)cc4CC[C@@H]3[C@@H]2c2ccc(F)cc2)cc1Cl [Example 3, (3R,3aR)-2-(3-chloro-4-cyanophenyl)-3-(4-fluorophenyl)-3,3a,4,5-tetrahydro-2H-benzo[g]indazole-7-carboxylic acid] | 40.7 nM
CS(=O)(=O)CCNC(=O)c1ccc2c(c1)CC[C@H]1C2=NN(c2ccc(C#N)c(Cl)c2)[C@H]1C1CCOCC1 (racemic) [Example 100] | 21 nM
